Source: publication PMC8685350, “Activation of the SARS-CoV-2 NSP14 3′–5′ exoribonuclease by NSP10 and response to antiviral inhibitors” (The Journal of Biological Chemistry, 2021)

Columns and labels:
NSP10/14 complex [1] = target: T1, NSP10/14 complex (Severe acute respiratory syndrome coronavirus 2, UniProt P0DTD1); test: biochemical
T1 construct: gene rep; full-length NSP14 and NSP10 (139 aa), mature chains of replicase polyprotein 1ab; N-terminal His-tags (pDEST527), E. coli Rosetta2; assembled in vitro, copurified on Mono S, near stoichiometric; with Non-structural protein 10

NSP10/14 complex [2] = target: T1, NSP10/14 complex; assay type: binding
NSP14 = target: T2, NSP14 (Severe acute respiratory syndrome coronavirus 2, UniProt P0DTD1); assay type: binding
T2 construct: gene rep; full-length NSP14, mature chain of replicase polyprotein 1ab; N-terminal His-tag (pDEST527), E. coli Rosetta2

SMILES: Nc1ncnc2c1ncn2[C@@H]1O[C@H](CSCC[C@H](N)C(=O)O)[C@@H](O)[C@H]1O [S-adenosylhomocysteine]
- EC50 (NSP10/14 complex [1]): 25 ± 9 µM
- Tm at 400 μM SAH (NSP10/14 complex [2]): 48.2 ± 0.2 °C
- Tm at 40 μM SAH (control Tm 43.1 ± 0.2 °C) (NSP14): 48.5 ± 0.17 °C
